Test results published in patent publication US20070243558A1, “Peptide Stabilization” (priority 2004, published 2007).
Read-outs that look alike come from different tables or passages of the source.

What was measured:
[1] = for gastrin-17 concentration, Avg.: average of days 0-3
[2] = Preservation of gastrin-17 in 5% DMSO/serum or plasma solutions; assay type: physicochemical; details: 5% (vol./vol.) DMSO/serum or plasma solutions, even at room temperature
[3] = Storage stability of analytes in serum sample without stabilizer (background statement); assay type: physicochemical; details: serum sample
Source text: In connection with said determinations and sample handling the poor stability of gastrin-17 has proven to be a problem, due to the fact that it decomposes rapidly in the sample. […] This is in contrast to pepsinogen I and II, which retain their activity at room temperature for many days, and Helicobacter pylori antibodies, which survive for at least three days under refrigerator conditions.

[4] = Stability of the same analytes in serum samples, with and without 5% DMSO (Table 3); assay type: physicochemical
Source text: Table 3 is a test corresponding to the test of Table 2, but where the ten samples to be tested were serum samples rather than plasma samples.

[5] = room temperature
Procedure: The effect of adding DMSO was tested on pepsinogen I, pepsinogen II, Helicobacter pylori antibodies and gastrin-17. The results are indicated at day 0 and day 3.

- gastrin-17 concentration, Avg. ([1]; EDTA-plasma sample PL459S, 0% DMSO): 4.1 pmol/L
- gastrin-17 concentration ([1]; EDTA-plasma sample PL459S, 0% DMSO, day 0): 8.5 pmol/L
- gastrin-17 concentration ([1]; EDTA-plasma sample PL459S, 0% DMSO, day 1): 3.6 pmol/L
- gastrin-17 concentration ([1]; EDTA-plasma sample PL459S, 0% DMSO, day 2): 2.7 pmol/L
- gastrin-17 concentration ([1]; EDTA-plasma sample PL459S, 0% DMSO, day 3): 1.5 pmol/L
- gastrin-17 concentration, Avg. ([1]; EDTA-plasma sample PL459S, 5% DMSO): 5.6 pmol/L
- gastrin-17 concentration ([1]; EDTA-plasma sample PL459S, 5% DMSO, day 0): 6.3 pmol/L
- gastrin-17 concentration ([1]; EDTA-plasma sample PL459S, 5% DMSO, day 1): 5.4 pmol/L
- gastrin-17 concentration ([1]; EDTA-plasma sample PL459S, 5% DMSO, day 2): 5.2 pmol/L
- gastrin-17 concentration ([1]; EDTA-plasma sample PL459S, 5% DMSO, day 3): 5.4 pmol/L
- gastrin-17 concentration, Avg. ([1]; EDTA-plasma sample PL460s, 0% DMSO): 6.0 pmol/L
- gastrin-17 concentration ([1]; EDTA-plasma sample PL460s, 0% DMSO, day 0): 7.9 pmol/L
- gastrin-17 concentration ([1]; EDTA-plasma sample PL460s, 0% DMSO, day 1): 5.8 pmol/L
- gastrin-17 concentration ([1]; EDTA-plasma sample PL460s, 0% DMSO, day 2): 5.8 pmol/L
- gastrin-17 concentration ([1]; EDTA-plasma sample PL460s, 0% DMSO, day 3): 4.6 pmol/L
- gastrin-17 concentration, Avg. ([1]; EDTA-plasma sample PL460s, 5% DMSO): 6.0 pmol/L
- gastrin-17 concentration ([1]; EDTA-plasma sample PL460s, 5% DMSO, day 0): 6.3 pmol/L
- gastrin-17 concentration ([1]; EDTA-plasma sample PL460s, 5% DMSO, day 1): 5.5 pmol/L
- gastrin-17 concentration ([1]; EDTA-plasma sample PL460s, 5% DMSO, day 2): 6.1 pmol/L
- gastrin-17 concentration ([1]; EDTA-plasma sample PL460s, 5% DMSO, day 3): 6.0 pmol/L
- gastrin-17 concentration, Avg. ([1]; EDTA-plasma sample PL461s, 0% DMSO): 12.4 pmol/L
- gastrin-17 concentration ([1]; EDTA-plasma sample PL461s, 0% DMSO, day 0): 26.0 pmol/L
- gastrin-17 concentration ([1]; EDTA-plasma sample PL461s, 0% DMSO, day 1): 8.7 pmol/L
- gastrin-17 concentration ([1]; EDTA-plasma sample PL461s, 0% DMSO, day 2): 8.5 pmol/L
- gastrin-17 concentration ([1]; EDTA-plasma sample PL461s, 0% DMSO, day 3): 6.1 pmol/L
- gastrin-17 concentration, Avg. ([1]; EDTA-plasma sample PL461s, 5% DMSO): 21.8 pmol/L
- gastrin-17 concentration ([1]; EDTA-plasma sample PL461s, 5% DMSO, day 0): 24.3 pmol/L
- gastrin-17 concentration ([1]; EDTA-plasma sample PL461s, 5% DMSO, day 1): 21.6 pmol/L
- gastrin-17 concentration ([1]; EDTA-plasma sample PL461s, 5% DMSO, day 2): 19.9 pmol/L
- gastrin-17 concentration ([1]; EDTA-plasma sample PL461s, 5% DMSO, day 3): 21.2 pmol/L
- time for which gastrin-17 was preserved [2]: at least three
- state of the analyte in a serum sample after a day ([3]; after a day, refrigerating conditions): degraded completely
- time after which the concentration in a serum sample starts to decrease clearly ([3]; no stabilizer): three
- Gastrin 17 concentration ([4]; serum sample PL411s, 0% DMSO): 33.4 pmol/L
- Gastrin 17 concentration ([4]; serum sample PL411s, 5% DMSO): 32.5 pmol/L
- Gastrin 17 concentration ([4]; serum sample PL420b, 0% DMSO): 24.1 pmol/L
- Gastrin 17 concentration ([4]; serum sample PL420b, 5% DMSO): 20.1 pmol/L
- Gastrin 17 concentration ([4]; serum sample PL426s, 0% DMSO): 1.1 pmol/L
- Gastrin 17 concentration ([4]; serum sample PL426s, 5% DMSO): 1.9 pmol/L
- Gastrin 17 concentration ([4]; serum sample PL438s, 0% DMSO): 9.3 pmol/L
- Gastrin 17 concentration ([4]; serum sample PL438s, 5% DMSO): 9.8 pmol/L
- Gastrin 17 concentration ([4]; serum sample PL439s, 0% DMSO): 7.4 pmol/L
- Gastrin 17 concentration ([4]; serum sample PL439s, 5% DMSO): 8.5 pmol/L
- Gastrin 17 concentration ([4]; serum sample PL447b, 0% DMSO): 18.2 pmol/L
- Gastrin 17 concentration ([4]; serum sample PL447b, 5% DMSO): 21.7 pmol/L
- Gastrin 17 concentration ([4]; serum sample PL454s, 0% DMSO): 4.4 pmol/L
- Gastrin 17 concentration ([4]; serum sample PL454s, 5% DMSO): 5.6 pmol/L
- Gastrin 17 concentration ([4]; serum sample PL455b, 0% DMSO): 15.6 pmol/L
- Gastrin 17 concentration ([4]; serum sample PL455b, 5% DMSO): 17.6 pmol/L
- Gastrin 17 concentration ([4]; serum sample PL457b, 0% DMSO): 3.3 pmol/L
- Gastrin 17 concentration ([4]; serum sample PL457b, 5% DMSO): 6.0 pmol/L
- Gastrin 17 concentration ([4]; serum sample PL458s, 0% DMSO): 5.4 pmol/L
- Gastrin 17 concentration ([4]; serum sample PL458s, 5% DMSO): 2.2 pmol/L
- activity in samples with added 5% (vol./vol.) of DMSO ([4]; serum samples): generally retained activity
- Gastrin 17 concentration ([5]; EDTA-plasma sample PL466s, 0% DMSO, day 0): 7.6 pmol/L
- Gastrin 17 concentration ([5]; EDTA-plasma sample PL466s, 0% DMSO, day 3): 1.6 pmol/L
- Gastrin 17 concentration ([5]; EDTA-plasma sample PL466s, 5% DMSO, day 0): 7.8 pmol/L
- Gastrin 17 concentration ([5]; EDTA-plasma sample PL466s, 5% DMSO, day 3): 6.9 pmol/L
- Gastrin 17 concentration ([5]; EDTA-plasma sample PL467s, 0% DMSO, day 0): 5.3 pmol/L
- Gastrin 17 concentration ([5]; EDTA-plasma sample PL467s, 0% DMSO, day 3): 2.9 pmol/L
- Gastrin 17 concentration ([5]; EDTA-plasma sample PL467s, 5% DMSO, day 0): 4.4 pmol/L
- Gastrin 17 concentration ([5]; EDTA-plasma sample PL467s, 5% DMSO, day 3): 4.5 pmol/L
- Gastrin 17 concentration ([5]; EDTA-plasma sample PL471s, 0% DMSO, day 0): 1.3 pmol/L
- Gastrin 17 concentration ([5]; EDTA-plasma sample PL471s, 0% DMSO, day 3): 0.2 pmol/L
- Gastrin 17 concentration ([5]; EDTA-plasma sample PL471s, 5% DMSO, day 0): 1.7 pmol/L
- Gastrin 17 concentration ([5]; EDTA-plasma sample PL471s, 5% DMSO, day 3): 1.4 pmol/L
- Gastrin 17 concentration ([5]; EDTA-plasma sample PL472s, 0% DMSO, day 0): 20 pmol/L
- Gastrin 17 concentration ([5]; EDTA-plasma sample PL472s, 0% DMSO, day 3): 2.9 pmol/L
- Gastrin 17 concentration ([5]; EDTA-plasma sample PL472s, 5% DMSO, day 0): 21 pmol/L
- Gastrin 17 concentration ([5]; EDTA-plasma sample PL472s, 5% DMSO, day 3): 14.3 pmol/L
- Gastrin 17 concentration ([5]; EDTA-plasma sample PL473s, 0% DMSO, day 0): 3.7 pmol/L
- Gastrin 17 concentration ([5]; EDTA-plasma sample PL473s, 0% DMSO, day 3): 0.6 pmol/L
- Gastrin 17 concentration ([5]; EDTA-plasma sample PL473s, 5% DMSO, day 0): 3.8 pmol/L
- Gastrin 17 concentration ([5]; EDTA-plasma sample PL473s, 5% DMSO, day 3): 3.4 pmol/L
Substance: gastrin-17 [Gastrin 17]
